US20150241410A1, “INHIBITORS OF CENTRAL NERVOUS SYSTEM VASOACTIVE INHIBITORY PEPTIDE RECEPTOR 2” (The Trustees Of Columbia University In The City Of New York, priority 2012, published 2015)
pIC50: −log10 of the molar value. Entries after “also recorded” stand apart in the source; their conditions may differ. One block for each compound: values may come before it.

Assays:
Assay type in all cases: cell-based
[1] = biological target: T1, VIPR2 (Homo sapiens, UniProt P41587); experiment: BRET-based VIPR2 activation assay (CAMYEL cAMP sensor, CHO cells, VIP background); conditions: for pIC50: Table 3, read-out: IC50 (from BRET)
T1 construct: expressed in transfected cells
T1 sequence (P41587 24-438): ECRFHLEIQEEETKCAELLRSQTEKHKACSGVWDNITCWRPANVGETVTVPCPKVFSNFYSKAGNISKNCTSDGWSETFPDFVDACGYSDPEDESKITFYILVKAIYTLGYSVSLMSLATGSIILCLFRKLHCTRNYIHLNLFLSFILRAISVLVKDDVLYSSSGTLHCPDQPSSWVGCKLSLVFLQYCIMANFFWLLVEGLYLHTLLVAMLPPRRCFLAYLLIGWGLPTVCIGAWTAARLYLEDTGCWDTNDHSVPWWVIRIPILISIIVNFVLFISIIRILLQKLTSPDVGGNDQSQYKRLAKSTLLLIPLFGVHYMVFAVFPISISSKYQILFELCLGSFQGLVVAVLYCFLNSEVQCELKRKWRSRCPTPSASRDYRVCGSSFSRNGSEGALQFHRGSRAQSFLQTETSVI
Method: FIG. 5A-B. Results of BRET-based VIPR2 activation assays in cells expressing both the VIPR2 receptor and CAMYEL (see FIG. 1A for schematic). a) Inhibitory dose-response curves on treatment of CHO cells with increasing concentrations of a batch of antagonists against a background of VIP activation (VIP=5 nM).
In such a system, a detector cell is used which expresses both the VIPR2 receptor and “CAMYEL,” a YFP-Epac-RLuc8 BRET sensor construct. This construct includes Epac1, a guanine nucleotide exchange factor activated by direct binding of cAMP, fused with an enhanced YFP and Renilla luciferase 8 (Rluc8) allowing BRET upon cAMP-induced conformational changes (Jiang et al., 2007, J Biol Chem. 282:10576-10584). In response to elevated cAMP levels, there is a conformational change in Epac and therefore a change in the proximity of the fused chromophores, Rluc8 and YFP, resulting in measurable energy transfer. Coexpression of this BRET construct with VIPR2. optionally tagged at the N-terminus with a signal peptide and FLAG epitope (SF-VIPR2), for example in HEK293 cells, allows for detection of a VIPR2-specific response to cAMP. BRET readout may be calculated by quantifying the ratio of the light emitted by the acceptor, YFP (λ=525 nm), over the emission from the donor, RLuc8 (λ=485 nm). The proximity of the donor and acceptor, and therefore the BRET ratio, decreases in the presence of cAMP. In non-limiting specific embodiments, a stable cell line may be generated for this assay using the Flp-In T-Rex system in HEK293 cells. This system allows site-specific single copy integration of the gene of interest and control of expression levels using the Tet-repressor site making receptor expression tetracycline-inducible. For example, a CAMYEL and VIPR2 expressing line may be induced with 0.01 μg/ml tetracycline, then, 24 hours later cells may be collected and distributed into 96-well plates. After treatment with candidate inhibitor compound, for example at 5, 1 and 0.5 μM concentrations, cells may be incubated with the light emitting luciferin, coelenterazine H, for 5 min and incubated for 5 min with VIP at increasing concentrations, for example ranging from 100 pM to 10 μM. The fluorescence and luminescence may then be quantified, for example using a PHERAstar (BMG) plate reader. […] Alternatively, analogous experiments may be performed using human cells harvested from a patient having a VIPR2 copy number variation, for example (but not by way of limitation) pluripotent stem cells prepared from such a patient and then transfected with a CAMYEL construct.
(§1) A series of compounds were prepared using a synthetic method analogous to that set forth in Scheme 1, above, and then tested for their ability to inhibit VIP-induced cAMP elevation and β-arrestin recruitment, as described herein (Discoverx Corporation, Fremont, Calif., US). Compound activities were also tested in a BRET-based assay, as described herein. The results are shown below in Tables 1-4, above.
Numerous cellular assays were developed that were able to detect VIP responses absent of interference from non-specific vasopressin receptors using this CHO based system. VIPR2 is a Gs coupled receptor. Activation of VIPR2 by VIP leads to both an elevation in cAMP signaling and the recruitment of β-arrestin. A variety of combinations can be transiently transfect into these CHO cells for the assessment of cellular responses to VIP. For the BRET readout CHO cell lines expressing an YFP-Epac-RLuc8 (CAMYEL) BRET sensor were used to detect changes in cAMP. This construct includes Epac1, a guanine nucleotide exchange factor activated by direct binding of cAMP, fused to an enhanced YFP and RLuc8 allowing a change in BRET upon cAMP-induced conformational changes. The key for medium to high throughput screening assays is the use of stable cell lines allowing the continuous assaying of multiple compounds with the ability to generate large numbers of cells for rapid use. […]

[2] = biological target: T1, VIPR2; experiment: Inhibition of VIP-induced cAMP elevation (% Activity)
From the text: In a further non-limiting embodiment of the invention, the ability of a compound to inhibit VIPR2 and […] may be measured using a Homogeneous Time-Resolved Fluorescence (“HTRF® assay; Cisbio Bioassays) as used in Chu et al., 2010, Molecular Pharmacol. 7795-101. In a method as used in Chu et al., 2010, Molecular Pharmacol. 7795-101, HEK293 cells may be transfected with nucleic acid encoding VIPR2, for example human VIPR2 (“hVIPR2”), for example comprised in a vector such as pCDNA3.1 vector. Successful transformnnants may then be selected, for example using 800 μg/ml G418. Clonal stable cell lines may then be generated by limited dilution to single cells and then may be clonally expanded and tested for VIP-dependent cAMP response. For the cAMP assay, about 3000-15,000 cells (in about 4-25 μl) may be placed in a well of an assay plate. The next day, inhibitor or test inhibitor and VIP may be added in a volume about 1-2 percent of the initial volume. Assay plates may then be returned to a cell incubator for 30 min before addition of a one-half volume of cAMP conjugate and, relative to the amount of cAMP conjugate, an equal volume of anti-cAMP conjugate (Cisbio). After at least 1 h of room-temperature incubation, HTRF signal may be read, for example using Viewlux or EnVision (PerkinElmer Life and Analytical Sciences, Waltham, Mass.). The ratio of […] at 665 nm and 620 nm times 10,000 may be calculated and plotted.
(§2) A series of compounds were prepared using a synthetic method analogous to that set forth in Scheme 1, above, and then tested for their ability to inhibit VIP-induced cAMP elevation and β-arrestin recruitment.
as §1

[3] = biological target: T1, VIPR2; experiment: Inhibition of VIP-induced β-arrestin recruitment (% Activity)
From the text: In a further non-limiting embodiment of the invention, the ability of a compound to inhibit VIPR2 GPCR activity may be tested, for example, using the PathHunter® eXpress 3-Arrestin GPCR system (Discoverx Corporation, Fremont, Calif., US), as used by Chu et al., 2010, Molecular Pharmacol. 7795-101. In this assay, J-Arrestin is fused to the “Enzyme Acceptor” (“EA”), an N-terminal deletion mutant of β-gal, and the GPCR of interest is fused to a smaller (42 amino acids), weakly complementing portion of the β-gal enzyme (termed “ProLink™”). In cells that stably express these fusion proteins, the interaction of β-Arrestin and the GPCR following ligand stimulation forces the complementation of the two β-gal fragments resulting in the formation of a functional enzyme that converts substrate to detectable signal. In the absence of an interaction between the GPCR and β-Arrestin, the enzyme activity is low due to the low affinity of the two enzyme fragments. For example, a nucleic acid encoding VIPR2, for example hVIPR2, may be cloned into the ProLink vector (DiscoveRx) for GPCR-ProLink fusion protein production. Parental HEK293 cells that stably express β-arrestin2-β-gal-EA fusion protein (DiscoveRx) may be detached and transiently transfected with the VIPR2-containing vector using Fugene6 transfection reagent in suspension mode. Transfected cells in assay medium may be plated into test plates, for example at 15,000 cells/25 μl/well. After overnight incubation, 500 n1 of an inhibitor or test inhibitor may be introduced into the test plate followed by 2 h incubation at 37° C., 5% CO2. Flash detection reagents may be added at 12.5 μl/well. After 5 min to 1 h of room-temperature incubation, the cell plates may be read on CLIPR (PerkinElmer Life and Analytical Sciences) or Acquest (Molecular Devices, Sunnyvale, Calif.) for luminescence signal.
as §2, §1

SMILES: CCC(C)Oc1ccc(S(=O)(=O)NC[C@@H](O)C[C@@H](Cc2ccccc2)C(=O)N[C@H]2c3ccccc3C[C@H]2O)cc1 (stereo partly shown) [Compound X120]
pIC50 [1]: 4.34

SMILES: Cc1ccc(S(=O)(=O)NC[C@@H](O)C[C@@H](Cc2ccccc2)C(=O)N[C@H]2c3ccccc3C[C@H]2O)cc1C [Compound X116]
pIC50 [1]: 4.88

SMILES: CCCOc1ccc(S(=O)(=O)NC[C@@H](O)C[C@@H](Cc2ccccc2)C(=O)N[C@H]2c3ccccc3C[C@H]2O)cc1 [Compound X118]
pIC50 [1]: 5.38

SMILES: COc1cc(C(=O)NC[C@@H](O)C[C@@H](Cc2ccccc2)C(=O)N[C@H]2c3ccccc3C[C@H]2O)cc(OC)c1OC [H]
inhibition at 1 µM ([3]; 1 μM, Batch 1): 3.2%

SMILES: O=C(N[C@H]1c2ccccc2C[C@H]1O)[C@H](Cc1ccccc1)C[C@H](O)CNS(=O)(=O)c1ccc(C(F)(F)F)cc1 [F]
VIPR2 inhibition in BRET-based assay, in words ([1]; compared with Compound 1 or other compounds (FIG. 1C, FIG. 5B)): greater activity than Compound 1; also recorded: greater effect on VIPR2 inhibition than Compound 1

SMILES: O=C(N[C@H]1c2ccccc2C[C@H]1O)[C@H](Cc1ccccc1)C[C@H](O)CNS(=O)(=O)c1ccc(C(=O)N2CCCCC2)cc1 [Compound X101]
inhibition at 0.5 µM ([2]; Batch 3): -5.3%

SMILES: CCC(=O)Nc1ccc(S(=O)(=O)NC[C@@H](O)C[C@@H](Cc2ccccc2)C(=O)N[C@H]2c3ccccc3C[C@H]2O)cc1 [Compound X091]
inhibition at 0.5 µM ([3]; Batch 3): 3.4%

SMILES: O=C(N[C@H]1c2ccccc2C[C@H]1O)[C@H](Cc1ccccc1)C[C@H](O)CNS(=O)(=O)c1ccc([N+](=O)[O-])cc1 [Compound 1, reference compound]
shift of VIP dose-response curve ([1]; increasing doses of compound (FIG. 1C)): rightward shift

SMILES: CCC(C)c1ccc(S(=O)(=O)NC[C@@H](O)C[C@@H](Cc2ccccc2)C(=O)N[C@H]2c3ccccc3C[C@H]2O)cc1 (stereo partly shown) [Compound X117]
pIC50 [1]: 3.82

SMILES: O=C([C@@H](Cc1ccccc1)C[C@H](O)CNS(=O)(=O)c1ccc([N+](=O)[O-])cc1)N1CCCCC1 [Compound B18B]
inhibition at 0.5 µM ([3]; Batch 2): 9.5%

More lines, now with the values ahead:

pIC50 [1]: 5.38
SMILES: CCCc1ccc(S(=O)(=O)NC[C@@H](O)C[C@@H](Cc2ccccc2)C(=O)N[C@H]2c3ccccc3C[C@H]2O)cc1 [Compound X113]

pIC50 [1]: 4.88
SMILES: CS(=O)(=O)c1ccc(S(=O)(=O)NC[C@@H](O)C[C@@H](Cc2ccccc2)C(=O)N[C@H]2c3ccccc3C[C@H]2O)cc1 [Compound X111]

inhibition at 1 µM ([2]; 1 μM, Batch 2): -10.4%
SMILES: O=C([C@@H](Cc1ccccc1)C[C@H](O)CNS(=O)(=O)c1ccc([N+](=O)[O-])cc1)N1CCOCC1 [Compound B9B]

pIC50 [1]: 3.82
SMILES: O=C(N[C@H]1c2ccccc2C[C@H]1O)[C@H](Cc1ccccc1)C[C@H](O)CNS(=O)(=O)c1ccc(OC(F)(F)F)cc1 [Compound X112]

inhibition at 0.5 µM ([2]; Batch 2): 3.8%
SMILES: O=C([C@H](Cc1ccccc1)C[C@H](O)CNS(=O)(=O)c1ccc([N+](=O)[O-])cc1)N1CCOCC1 [Compound B9A]

% activity (β-arrestin recruitment) at 1 µM ([3]; 1 μM, Batch 2): 5.9%
SMILES: O=C(NC1CCCc2ccccc21)[C@@H](Cc1ccccc1)C[C@H](O)CNS(=O)(=O)c1ccc([N+](=O)[O-])cc1 (stereo partly shown) [Compound B13B]
